Experimental data: US8134015B2, “Compound inhibiting in vivo phosphorous transport and medicine containing the same” (Kyowa Hakko Kirin Co., Ltd., priority 2003, dated 2012)

The compounds below were run against T1, rat NaPi-2b (Rattus norvegicus, UniProt Q9JJ09) (assay: Sodium-dependent phosphate uptake of Xenopus oocytes which expressed NaPi-2b (32P)). Conditions: Xenopus oocytes expressing rat NaPi-2b, 32P radioactive phosphorus; read-out: IC50 (phosphate uptake inhibitory activity).
T1 construct: expressed in transfected cells; host or cells: Xenopus oocytes injected with cRNA
T1 sequence (Q9JJ09 1-695): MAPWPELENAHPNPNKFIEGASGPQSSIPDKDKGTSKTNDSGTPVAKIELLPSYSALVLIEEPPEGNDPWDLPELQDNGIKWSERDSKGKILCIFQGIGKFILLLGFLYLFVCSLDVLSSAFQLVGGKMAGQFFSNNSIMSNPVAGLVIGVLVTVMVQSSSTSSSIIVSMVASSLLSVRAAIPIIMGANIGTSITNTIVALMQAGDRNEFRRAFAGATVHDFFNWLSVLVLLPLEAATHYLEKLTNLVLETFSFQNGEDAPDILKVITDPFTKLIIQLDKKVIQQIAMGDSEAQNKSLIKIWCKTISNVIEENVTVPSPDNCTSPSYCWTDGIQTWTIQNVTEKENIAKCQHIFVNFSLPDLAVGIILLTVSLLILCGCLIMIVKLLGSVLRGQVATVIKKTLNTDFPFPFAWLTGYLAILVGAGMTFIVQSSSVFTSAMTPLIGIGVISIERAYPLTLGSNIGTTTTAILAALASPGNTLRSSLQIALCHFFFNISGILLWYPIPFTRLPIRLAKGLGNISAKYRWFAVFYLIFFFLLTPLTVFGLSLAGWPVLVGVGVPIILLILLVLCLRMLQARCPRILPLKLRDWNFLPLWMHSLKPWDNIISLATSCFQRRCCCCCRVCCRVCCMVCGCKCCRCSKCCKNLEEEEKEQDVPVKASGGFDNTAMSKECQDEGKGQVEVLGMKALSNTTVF
Type: cell-based
In short: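 Rat NaPi-2b cloned from small-intestine cDNA; cRNA injected into Xenopus oocytes, expression for 2 days. Phosphate uptake inhibition measured with 32P; percent inhibition at 300 μM and 100 μM read from the same inhibition curve.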

**Q.** With `CN(C)CCn1nnnc1SCc1cccc(C(=O)Nc2ccc(Cl)cc2C(=O)N/N=C/c2ccc(Cl)c(C(F)(F)F)c2)c1` [Compound 467, N-[4-Chloro-2-(4-chloro-3-trifluoromethyl-benzylidene-hydrazinocarbonyl)-phenyl]-3-[1-(2-dimethylamino-ethyl)-1H-tetrazol-5-ylsulfanylmethyl]-benzamide] as the compound, how does the IC50 read?
**A.** Its IC50 is 7.94 µM.

**Q.** For `CCN(CC)CCN(C)Cc1cccc(C(=O)Nc2ccc(OCCOC)cc2C(=O)N/N=C/c2cccc(F)c2)c1` [Compound 1025, 3-{[(2-Diethylamino-ethyl)-methyl-amino]-methyl}-N-[2-(3-fluoro-benzylidene-hydrazinocarbonyl)-4-(2-methoxy-ethoxy)-phenyl]-benzamide], which IC50 is on record?
**A.** Its IC50 is 5.71 µM.

**Q.** `Cc1ccc(/C=N/NC(=O)c2cc(Br)ccc2NC(=O)c2ccc(CNCCN3CCOCC3)cc2)cc1` [Compound 282, N-[4-Bromo-2-(4-methyl-benzylidene-hydrazinocarbonyl)-phenyl]-4-[(2-morpholin-4-yl-ethylamino)-methyl]-benzamide] was tested. Which IC50 did it give?
**A.** Its IC50 is 6.71 µM.

**Q.** `CC(O)CN(Cc1cccc(C(=O)Nc2ccc(Cl)cc2C(=O)N/N=C/c2ccc(OCCCN(C)C)cc2)c1)CC(C)O` (stereo not drawn) [Compound 998, 3-{[Bis-(2-hydroxy-propyl)-amino]-methyl}-N-{4-chloro-2-[4-(3-dimethylamino-propoxy)-benzylidene-hydrazinocarbonyl]-phenyl}-benzamide] was tested. Which IC50 did it give?
**A.** The IC50 was 16.6 µM.

**Q.** For `CCN(CC)CCN(C)Cc1cccc(C(=O)Nc2ccc(OCC3CCCCC3)cc2C(=O)N/N=C/c2ccc(C)cc2)c1` [Compound 1047, N-[4-Cyclohexylmethoxy-2-(4-methyl-benzylidene-hydrazinocarbonyl)-phenyl]-3-{[(2-diethylamino-ethyl)-methyl-amino]-methyl}-benzamide], which IC50 is on record?
**A.** Its IC50 is less than 1 µM.

**Q.** `Cc1ccc(/C=N/NC(=O)c2cc(Cl)ccc2NC(=O)c2cccnc2)cc1` [Compound 187, N-[4-Chloro-2-(4-methyl-benzylidene-hydrazinocarbonyl)-phenyl]-nicotinamide] was tested. Which IC50 did it give?
**A.** Its IC50 is 7.87 µM.

**Q.** For `Cc1ccc(/C=N/NC(=O)c2ccccc2NC(=O)c2cccc(F)c2)cc1` [Compound 84, 3-Fluoro-N-[2-(4-methyl-benzylidene-hydrazinocarbonyl)-phenyl]-benzamide], which IC50 is on record?
**A.** The IC50 was 8.42 µM.

**Q.** Which IC50 does the source give for `O=C(Nc1ccc(Cl)cc1C(=O)N/N=C/c1ccc(F)cc1)c1ccncc1` [Compound 190, N-[4-Chloro-2-(4-fluoro-benzylidene-hydrazinocarbonyl)-phenyl]-isonicotinamide] here?
**A.** The IC50 was 20.3 µM.

**Q.** With `COc1cc(/C=N/NC(=O)c2cc(N3CCOCC3)ccc2NC(=O)c2ccc(OC)c(OC)c2)ccc1O` [Compound 940, N-[2-(4-Hydroxy-3-methoxy-benzylidene-hydrazinocarbonyl)-4-morpholin-4-yl-phenyl]-3,4-dimethoxy-benzamide] as the compound, how does the IC50 read?
**A.** The IC50 was 30.6 µM.

**Q.** With `CCN(CC)CCN(CCN(CC)CC)Cc1cccc(C(=O)Nc2ccc(N3CCCCC3)cc2C(=O)N/N=C/c2ccc(Cl)c(C(F)(F)F)c2)c1` [Compound 909, 3-{[Bis-(2-diethylamino-ethyl)-amino]-methyl}-N-[2-(4-chloro-3-trifluoromethyl-benzylidene-hydrazinocarbonyl)-4-piperidin-1-yl-phenyl]-benzamide] as the compound, how does the IC50 read?
**A.** Its IC50 is 1.02 µM.

**Q.** With `CCN(CC)CCN(C)Cc1cccc(C(=O)Nc2sc3c(c2C(=O)N/N=C/c2cccc(F)c2)CCCC3)c1` [Compound 612, 3-{[(2-Diethylamino-ethyl)-methyl-amino]-methyl}-N-[3-(3-fluoro-benzylidene-hydrazinocarbonyl)-4,5,6,7-tetrahydro-benzo-[b]thiophen-2-yl]-benzamide] as the compound, how does the IC50 read?
**A.** The IC50 was 2.34 µM.

Same assay, conditions: phosphate uptake, oocytes expressing rat NaPi-2b; 300 μM, determined from inhibition curve

**Q.** For `COc1cc(OC)cc(C(=O)Nc2ccc(O)cc2C(=O)N/N=C/c2cccc(F)c2)c1` [Compound 242, N-[2-(3-Fluoro-benzylidene-hydrazinocarbonyl)-4-hydroxy-phenyl]-3,5-dimethoxy-benzamide], which inhibition at 300 µM is on record?
**A.** The inhibition at 300 µM was 37.6%.
